In patent US20250127933A1, “Method of verifying effectiveness and stability of linker in Drug Delivery system and Structure therefor” (INDUSTRY-ACADEMIC COOPERATION FOUNDATION OF SUNCHON …, priority 2023, published 2025):

What was measured:
[1] = tested on: Leucine aminopeptidase (LAP); experiment: Enzymatic kinetic study of LAP reaction of activatable fluorescent probes; type: biochemical, porcine; conditions: for Fluorophore released in LAP reaction (% yield) / Fluorophore released in LAP reaction (concentration) / kinetics of LAP reaction (time-dependent fluorescence emission): 1 μM probe, 10 μg/mL LAP, PBS pH 7.4, 37° C., 80 min; for Fluorophore released in LAP reaction (concentration): calculated from fluorophore calibration curves; for LAP response / fluorophore release (in words): LAP reaction, enzymatic study
Procedure: All spectroscopic readings were measured with BioTek Synergy™ H1 spectrophotometer, using 96 well microplate. A parent stock solution of probes was dissolved in DMSO to obtain 10 mM. Leucine aminopeptidase was dissolved in deionized water to obtain 1 mg/mL. All spectra measurements were carried out in PBS buffer solution (PBS buffer, 10 mM, pH 7.4, 37° C. The final volume in 96 well microplate was adjusted to 200 μL. RPMI 1640 was obtained from Thermo Scientific (Waltham, MA, USA). Bestatin hydrochloride (LAP inhibitor), DMSO and 2-mercaptoethanol were purchased from Sigma Aldrich (St. Louis, Mo, USA).
The kinetic study for LAP reaction was performed by incubation of 2 μg of LAP ([…]) with 1 μM probe in PBS buffer (10 mM, pH 7.4). The plate was incubated at 37° C. for 80 min with continuous shaking, and the emission spectra were recorded at the corresponding wavelength over time. A solution of LAP (2 μg/200 μL) was pretreated with bestatin (0, 1, 10, 50 and 100 μM) in PBS (10 mM, pH 7.4) at 37° C. for 30 min, and then 1 μM of probe was added. The mixture was incubated at 37° C., and the fluorescence was recorded on Synergy™ H1 using a 96-well microplate.
All reagents and solvents were obtained from commercial sources Sigma-Aldrich Chemical Co., Combi-Block, Tokyo Chemical Industries, Daejung Chemicals, and Alfa Aesar and used without purification. Anhydrous solvents were purchased from Sigma-Aldrich and used under dry nitrogen atmosphere. Ultrapure water was obtained from a water ultra-purification system. Completion of reaction was confirmed by thin layer chromatography (TLC) on Kiesegel 60F254 from Merck and all synthesized compounds were purified by flash column chromatography using ZEOprep 60 (40-63) […] silica gel from ZEOCHEM. ^1H and ^13C NMR spectra were measured on JEOL JNMECZ400s/L1 (400 MHZ) and CDCl3 or DMSO-d6 was used as the NMR solvents. The chemical shifts were quoted in parts per million (ppm) and the coupling constant (J) were reported in hertz unit (Hz). Chemical shifts (in ppm) were referenced to tetramethylsilane (δ=0 ppm) in CDCl3 as an internal standard. ^13C NMR spectra were reported in ppm referenced to the center line of the triplet at 77.0 ppm for CDCl3 or 39.5 ppm for DMSO-d6. All in vitro enzyme assays were performed by taking the absorbance and emission on Synergy™ H1 microplate reader from BioTek. Leucine aminopeptidase from porcine kidney and other enzymes were purchased from Sigma-Aldrich.

[2] = pH-dependent stability test; type: physicochemical; conditions: 1 μM probe, pH 2 to 12, 25° C.
Procedure: Thermal stability was evaluated by the incubation of 1 μM of the probe in PBS buffer (pH 7.4) at different temperatures ranging from 25 to 45° C. for 20 min and reading fluorescence at each temperature. The pH stability test was performed by the incubation with 1 μM probe in different pH buffers (2 to 13) at 25° C. and recording fluorescence at each pH.

HepG2 cells = experiment: Confocal live cell imaging in HepG2 cells; type: cell-based; conditions: 1 μM probe, LysoTracker Red DND-99, DAPI, HepG2 cells
Procedure: HepG2 cells were maintained in DMEM medium containing 10% FBS and 1% antibiotics in the 15 μ-plate 96 well black (ibidi, Germany). HepG2 cells were incubated with or without 500 μM of bestatin, LAP inhibitor, for 1 h and subsequently treated with 1 μM of probe and Lyso-Tracker™ Red (Thermo Scientific, USA) for 1 h. The treated cells were washed three times with PBS and treated with 10 μM of DAPI (Thermo Scientific, USA) for 2 h. Imaged were collected by Leica confocal microscopy (TCS SP5 AOBS/Tandem, Leica, Germany). Lyso-Tracker™ Red was excited by 514 nm and detected by 570-620 nm, compounds were excited by 476 nm and detected by 505-545 nm, DAPI was excited by 405 nm and detected by 420-470 nm.

[3] = tested on: Leucine aminopeptidase (LAP); experiment: Enzymatic kinetic study of LAP reaction of activatable fluorescent probes; type: biochemical, porcine; conditions: 1 μM probe; LAP 1, 5, 10, 20, 50, 100 μg/mL; PBS pH 7.4, 80 min, 37° C.
[4] = Ex vivo plasma stability in mice serum; type: in vitro ADME, C57BL/6 mice; conditions: 10 μM probe; for % survival rate of probe in serum: C57BL/6 mice serum, 37° C.
Procedure: Animal was treated strictly according to the guidelines for laboratory animal care and use issued by the Sunchon National University Institutional Animal Care and Use Committee (SCNU IACUC). Female C57/BL6 mice (7 weeks old), weighing about 17-20 g, were purchased from Orientbio (Orientbio Inc., Seongnam, Korea). Blood was collected from the posterior orbital plexus in normal mice and centrifuged (5000 rpm, 4° C., 5 minutes) to obtain serum. The stability study was performed by incubation of the fluorescent probe (10 μM) or rhodol fluorophore (0.1, 0.3, 1, 3 and 10 μM) with serum at 37° C. . . . The fluorescence was detected on Synergy™ H1 microplate reader.

With CCN(CC)c1ccc2c(c1)Oc1cc(NC(=O)[C@@H](N)CC(C)C)ccc1C21OC(=O)c2ccccc21 (stereo partly drawn) [Probe 1, (2S)-2-Amino-N-(3′-(diethylamino)-3-oxo-3H-spiro[isobenzofuran-1,9′-xanthen]-6′-yl)-4-methylpentanamide] the “Fluorophore released in LAP reaction (% yield)” value (shortened to “Fluorophore released … (% yield)”) [1] was 66.7%, the “Fluorophore released in LAP reaction (concentration)” value [1] was ~0.667 µM and the “pH-dependent stability (fluorescence of fluorophore released by degradation)” value (shortened to “pH-dependent stability”) [2] was “increased fluorescence emission in the pH range of 7-9”.
In the case of COc1ccc2c(c1)Oc1cc(NC(=O)[C@@H](N)CC(C)C)ccc1C21OC(=O)c2ccccc21 (stereo partly drawn) [Probe 2, (2S)-2-Amino-N-(3′-methoxy-3-oxo-3H-spiro[isobenzofuran-1,9′-xanthen]-6′-yl)-4-methylpentanamide], the “lysosomal colocalization in confocal live cell imaging” value (HepG2 cells) is reported as “colocalized into lysosomes with LysoTracker”, the “Fluorophore released … (% yield)” value [1] is reported as 89.7% and the “kinetics of LAP reaction (time-dependent fluorescence emission)” value (“kinetics of LAP reaction” below) [1] is reported as “faster kinetics than those of the corresponding P2 and P3 probes”. The “Fluorophore released in LAP reaction (concentration)” value [1] was ~0.897 µM, the “pH-dependent stability” value [2] was “increased fluorescence emission in the pH range of 7-9” and the “LAP response at various concentrations of LAP” value [3] was “nearly maximal responses at 10 μg/mL of LAP”. For the same compound, the “time-dependent fluorescence emission in serum” value ([4]; C57/BL6 mice serum, 48 h) was “rapidly increased”, the “% survival rate of probe in serum” value ([4]; 4 h p.i.) was 45% and the “% survival rate of probe in serum” value ([4]; 48 h) was 39%.
In the case of CCN(CC)c1ccc2c(c1)Oc1cc(NC(=O)OCc3ccc(NC(=O)[C@@H](N)CC(C)C)cc3)ccc1C21OC(=O)c2ccccc21 (stereo partly drawn) [Probe 3, 4-((S)-2-Amino-4-methylpentanamido)benzyl (3′-(diethylamino)-3-oxo-3H-spiro[isobenzofuran-1,9′-xanthen]-6′-yl)carbamate], the “Fluorophore released … (% yield)” value ([1]; Rhoda-P2) is reported as 98.7%, the “Fluorophore released in LAP reaction (concentration)” value [1] is reported as ~0.987 µM and the “Fluorophore released … (% yield)” value ([1]; listed as Rhoda-P2) is reported as 74.7%. For the same compound, the “pH-dependent stability” value [2] was “no change in fluorescence emission according to the change in pH”.
In the case of CCN(CC)c1ccc2c(c1)Oc1cc(OCc3ccc(NC(=O)[C@@H](N)CC(C)C)cc3)ccc1C21OC(=O)c2ccccc21 (stereo partly drawn) [Probe 5, (2S)-2-Amino-N-(4-(((3′-(diethylamino)-3-oxo-3H-spiro[isobenzofuran-1,9′-xanthen]-6′-yl)oxy)methyl)phenyl)-4-methylpentanamide], the “Fluorophore released … (% yield)” value [1] is reported as 19.1%, the “kinetics of LAP reaction” value [1] is reported as “notably slower kinetics” and the “Fluorophore released in LAP reaction (concentration)” value [1] is reported as ~0.191 µM. For the same compound, the “LAP response / fluorophore release (in words)” value [1] was “lower responses”.
With COc1ccc2c(c1)Oc1cc(OCc3ccc(NC(=O)[C@@H](N)CC(C)C)cc3)ccc1C21OC(=O)c2ccccc21 (stereo partly drawn) [Probe 6, (2S)-2-Amino-N-(4-(((3′-methoxy-3-oxo-3H-spiro[isobenzofuran-1,9′-xanthen]-6′-yl)oxy)methyl)phenyl)-4-methylpentanamide] the “Fluorophore released … (% yield)” value [1] was 37.3%, the “kinetics of LAP reaction” value [1] was “notably slower kinetics” and the “Fluorophore released in LAP reaction (concentration)” value [1] was ~0.373 µM. For the same compound, the “LAP response / fluorophore release (in words)” value [1] was “lower responses” and the “LAP response at various concentrations of LAP” value [3] was “nearly maximal responses at 10 μg/mL of LAP”.
For CCN(CC)c1ccc2c(c1)Oc1cc(NC(=O)[C@@H](N)CC(C)C)ccc1C21OCc2ccccc21 (stereo partly drawn) [Probe 7, (2S)-2-Amino-N-(3′-(diethylamino)-3H-spiro[isobenzofuran-1,9′-xanthen]-6′-yl)-4-methylpentanamide], the “Fluorophore released … (% yield)” value [1] was 74.1% and the “Fluorophore released in LAP reaction (concentration)” value [1] was ~0.741 µM.
With COc1ccc2c(c1)Oc1cc(NC(=O)[C@@H](N)CC(C)C)ccc1C21OCc2ccccc21 (stereo partly drawn) [Probe 8, (2S)-2-Amino-N-(3′-methoxy-3H-spiro[isobenzofuran-1,9′-xanthen]-6′-yl)-4-methylpentanamide] the “Fluorophore released … (% yield)” value [1] was 93.9%, the “kinetics of LAP reaction” value [1] was “faster kinetics than those of the corresponding P2 and P3 probes” and the “Fluorophore released in LAP reaction (concentration)” value [1] was ~0.939 µM.
In the case of CCN(CC)c1ccc2c(c1)Oc1cc(NC(=O)OCc3ccc(NC(=O)[C@@H](N)CC(C)C)cc3)ccc1C21OCc2ccccc21 (stereo partly drawn) [Probe 9, 4-((S)-2-Amino-4-methylpentanamido)benzyl (3′-(diethylamino)-3H-spiro[isobenzofuran-1,9′-xanthen]-6′-yl)carbamate], the “Fluorophore released … (% yield)” value [1] is reported as 32.8% and the “Fluorophore released in LAP reaction (concentration)” value [1] is reported as ~0.328 µM.
In the case of COc1ccc2c(c1)Oc1cc(NC(=O)OCc3ccc(NC(=O)[C@@H](N)CC(C)C)cc3)ccc1C21OCc2ccccc21 (stereo partly drawn) [Probe 10, 4-((S)-2-Amino-4-methylpentanamido)benzyl (3′-methoxy-3H-spiro[isobenzofuran-1,9′-xanthen]-6′-yl)carbamate], the “Fluorophore released … (% yield)” value [1] is reported as 67.6% and the “Fluorophore released in LAP reaction (concentration)” value [1] is reported as ~0.676 µM.
With CCN(CC)c1ccc2c(c1)Oc1cc(OCc3ccc(NC(=O)[C@@H](N)CC(C)C)cc3)ccc1C21OCc2ccccc21 (stereo partly drawn) [Probe 11, (2S)-2-Amino-N-(4-(((3′-(diethylamino)-3H-spiro[isobenzofuran-1,9′-xanthen]-6′-yl)oxy)methyl)phenyl)-4-methylpentanamide] the “Fluorophore released … (% yield)” value [1] was 29.8%, the “kinetics of LAP reaction” value [1] was “notably slower kinetics” and the “Fluorophore released in LAP reaction (concentration)” value [1] was ~0.298 µM. For the same compound, the “LAP response / fluorophore release (in words)” value [1] was “lower responses”.
For COc1ccc2c(c1)Oc1cc(OCc3ccc(NC(=O)[C@@H](N)CC(C)C)cc3)ccc1C21OCc2ccccc21 (stereo partly drawn) [Probe 12, (2S)-2-Amino-N-(4-(((3′-methoxy-3H-spiro[isobenzofuran-1,9′-xanthen]-6′-yl)oxy)methyl)phenyl)-4-methylpentanamide], the “Fluorophore released … (% yield)” value [1] was 73.6% and the “Fluorophore released in LAP reaction (concentration)” value [1] was ~0.736 µM.
